{
  "source": "paper PMC7827406",
  "about": "“Structure–Activity Relationship (SAR) Study of Spautin-1 to Entail the Discovery of Novel NEK4 Inhibitors” (International Journal of Molecular Sciences, 2021)",
  "assay_in_all_cases": "biochemical",
  "design_in_all_cases": "Eurofins KinaseProfiler full panel at Km ATP, residual kinase activity (%) relative to DMSO",
  "key": {"[1]": {"target": "T1, PKCι(h) (Homo sapiens, UniProt P41743)", "T1 construct": "gene PRKCI", "T1 sequence (P41743 1-596)": "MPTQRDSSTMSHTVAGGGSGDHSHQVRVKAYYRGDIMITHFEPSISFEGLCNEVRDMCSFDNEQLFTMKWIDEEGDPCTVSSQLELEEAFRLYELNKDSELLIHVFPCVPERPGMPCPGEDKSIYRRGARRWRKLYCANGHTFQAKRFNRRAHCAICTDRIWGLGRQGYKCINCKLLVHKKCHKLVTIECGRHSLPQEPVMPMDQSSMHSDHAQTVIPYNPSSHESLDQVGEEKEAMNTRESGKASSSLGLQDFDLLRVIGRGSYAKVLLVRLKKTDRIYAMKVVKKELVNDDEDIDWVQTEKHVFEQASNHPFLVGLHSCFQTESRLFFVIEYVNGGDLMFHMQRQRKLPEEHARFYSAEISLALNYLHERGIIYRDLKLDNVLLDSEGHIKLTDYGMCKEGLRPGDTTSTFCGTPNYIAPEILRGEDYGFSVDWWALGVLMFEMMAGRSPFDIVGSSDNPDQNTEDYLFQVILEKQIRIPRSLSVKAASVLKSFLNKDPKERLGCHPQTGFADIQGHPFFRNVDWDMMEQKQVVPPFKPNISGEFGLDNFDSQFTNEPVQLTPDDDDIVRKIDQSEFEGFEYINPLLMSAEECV", "how_it_was_run": "(§1)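 Compounds screened at 10 µM in radiometric kinase activity assays at Km ATP, reported as remaining kinase activity (%). A KINOMEscan competition-binding screen at 10 µM measured DNA-tagged kinase retained on immobilized active-site ligand by qPCR.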"}, "[2]": {"target": "T2, CDKL2(h) (Homo sapiens, UniProt Q92772)", "T2 sequence (Q92772 1-493)": "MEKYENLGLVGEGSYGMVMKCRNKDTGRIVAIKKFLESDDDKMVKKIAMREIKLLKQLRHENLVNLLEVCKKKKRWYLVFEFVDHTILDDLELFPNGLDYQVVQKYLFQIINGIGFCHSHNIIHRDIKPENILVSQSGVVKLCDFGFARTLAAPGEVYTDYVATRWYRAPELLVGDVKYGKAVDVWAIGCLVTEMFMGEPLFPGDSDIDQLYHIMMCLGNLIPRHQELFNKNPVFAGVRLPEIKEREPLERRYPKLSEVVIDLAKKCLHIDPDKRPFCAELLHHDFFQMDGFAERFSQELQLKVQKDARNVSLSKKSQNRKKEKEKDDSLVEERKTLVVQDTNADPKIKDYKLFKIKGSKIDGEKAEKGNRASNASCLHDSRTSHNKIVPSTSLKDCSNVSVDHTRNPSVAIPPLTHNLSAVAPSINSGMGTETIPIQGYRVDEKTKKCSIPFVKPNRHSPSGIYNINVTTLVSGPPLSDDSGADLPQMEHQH", "how_it_was_run": "as §1"}, "[3]": {"target": "T3, SIK(h) (Homo sapiens, UniProt P57059)", "T3 construct": "gene SIK1", "T3 sequence (P57059 whole entry)": "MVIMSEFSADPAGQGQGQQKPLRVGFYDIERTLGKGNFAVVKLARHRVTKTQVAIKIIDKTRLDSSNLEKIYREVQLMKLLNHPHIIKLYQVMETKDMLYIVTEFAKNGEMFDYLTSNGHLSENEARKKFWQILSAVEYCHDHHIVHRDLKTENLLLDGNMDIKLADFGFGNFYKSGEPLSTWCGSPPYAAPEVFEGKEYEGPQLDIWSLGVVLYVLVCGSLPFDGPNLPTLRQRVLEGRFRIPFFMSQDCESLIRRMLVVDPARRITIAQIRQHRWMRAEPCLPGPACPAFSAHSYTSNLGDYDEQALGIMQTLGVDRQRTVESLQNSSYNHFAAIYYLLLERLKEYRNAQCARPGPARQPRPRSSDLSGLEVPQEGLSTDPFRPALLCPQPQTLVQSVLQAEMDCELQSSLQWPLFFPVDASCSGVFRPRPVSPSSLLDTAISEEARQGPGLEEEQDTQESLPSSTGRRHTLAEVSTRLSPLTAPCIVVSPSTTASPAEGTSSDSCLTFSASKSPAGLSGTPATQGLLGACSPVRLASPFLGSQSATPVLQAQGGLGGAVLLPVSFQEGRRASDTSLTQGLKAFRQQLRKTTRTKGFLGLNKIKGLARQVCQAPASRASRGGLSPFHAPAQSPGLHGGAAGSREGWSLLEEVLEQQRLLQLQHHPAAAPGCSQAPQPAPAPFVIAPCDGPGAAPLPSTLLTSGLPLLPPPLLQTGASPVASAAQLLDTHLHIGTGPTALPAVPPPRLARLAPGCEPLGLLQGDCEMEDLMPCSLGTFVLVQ", "how_it_was_run": "as §1"}, "[4]": {"target": "T4, SAPK2a(h) (Homo sapiens, UniProt Q16539)", "T4 construct": "gene MAPK14", "T4 sequence (Q16539 whole entry)": "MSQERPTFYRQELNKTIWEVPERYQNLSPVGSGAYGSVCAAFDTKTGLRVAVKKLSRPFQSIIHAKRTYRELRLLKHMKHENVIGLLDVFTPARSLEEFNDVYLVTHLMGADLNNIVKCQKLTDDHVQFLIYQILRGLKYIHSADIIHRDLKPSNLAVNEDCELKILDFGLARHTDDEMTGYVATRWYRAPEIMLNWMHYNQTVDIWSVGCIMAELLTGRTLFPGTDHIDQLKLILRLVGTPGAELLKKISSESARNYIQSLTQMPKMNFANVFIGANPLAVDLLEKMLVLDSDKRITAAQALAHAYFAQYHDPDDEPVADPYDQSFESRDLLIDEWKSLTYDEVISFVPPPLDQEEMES", "how_it_was_run": "as §1"}, "[5]": {"target": "T5, IKKα(h) (Homo sapiens, UniProt O15111)", "T5 construct": "gene CHUK", "T5 sequence (O15111 1-745)": "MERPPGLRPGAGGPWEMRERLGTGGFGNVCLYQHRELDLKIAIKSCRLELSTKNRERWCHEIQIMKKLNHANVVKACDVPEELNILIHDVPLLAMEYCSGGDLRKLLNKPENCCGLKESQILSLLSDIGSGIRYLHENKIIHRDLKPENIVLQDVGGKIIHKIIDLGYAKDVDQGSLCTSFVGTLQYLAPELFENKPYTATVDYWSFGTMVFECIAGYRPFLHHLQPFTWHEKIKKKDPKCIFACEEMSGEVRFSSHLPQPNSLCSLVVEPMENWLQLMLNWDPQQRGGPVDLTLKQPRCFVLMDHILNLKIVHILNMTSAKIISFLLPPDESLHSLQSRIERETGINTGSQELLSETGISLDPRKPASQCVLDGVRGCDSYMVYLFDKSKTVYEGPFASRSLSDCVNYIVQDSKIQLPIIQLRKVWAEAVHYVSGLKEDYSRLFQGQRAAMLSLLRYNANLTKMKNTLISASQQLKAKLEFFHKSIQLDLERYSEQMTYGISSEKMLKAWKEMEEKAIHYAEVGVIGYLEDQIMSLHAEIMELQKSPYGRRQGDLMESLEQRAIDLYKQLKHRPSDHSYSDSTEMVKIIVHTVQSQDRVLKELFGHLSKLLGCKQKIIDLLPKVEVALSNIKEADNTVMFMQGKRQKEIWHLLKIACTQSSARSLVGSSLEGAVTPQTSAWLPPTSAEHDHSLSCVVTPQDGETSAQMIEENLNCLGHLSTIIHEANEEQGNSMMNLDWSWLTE", "how_it_was_run": "as §1"}, "[6]": {"target": "T6, MEK1(h) (Homo sapiens, UniProt Q02750)", "T6 construct": "gene MAP2K1", "T6 sequence (Q02750 whole entry)": "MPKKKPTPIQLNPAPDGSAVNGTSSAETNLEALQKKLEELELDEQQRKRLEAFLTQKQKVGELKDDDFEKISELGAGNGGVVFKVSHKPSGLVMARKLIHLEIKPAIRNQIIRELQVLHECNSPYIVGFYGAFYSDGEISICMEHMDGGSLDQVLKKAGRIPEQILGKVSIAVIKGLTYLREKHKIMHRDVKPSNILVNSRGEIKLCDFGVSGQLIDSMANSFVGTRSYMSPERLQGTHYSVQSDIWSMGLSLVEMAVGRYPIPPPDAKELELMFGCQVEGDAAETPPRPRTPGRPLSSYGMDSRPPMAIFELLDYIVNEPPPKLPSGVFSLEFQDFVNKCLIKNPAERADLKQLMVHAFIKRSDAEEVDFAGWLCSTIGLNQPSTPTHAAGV", "how_it_was_run": "as §1"}, "[7]": {"target": "T7, PI3 Kinase (p110a/p65a)(m) (Mus musculus, UniProt P42337)", "T7 construct": "gene Pik3ca; with p65a", "T7 sequence (P42337 whole entry)": "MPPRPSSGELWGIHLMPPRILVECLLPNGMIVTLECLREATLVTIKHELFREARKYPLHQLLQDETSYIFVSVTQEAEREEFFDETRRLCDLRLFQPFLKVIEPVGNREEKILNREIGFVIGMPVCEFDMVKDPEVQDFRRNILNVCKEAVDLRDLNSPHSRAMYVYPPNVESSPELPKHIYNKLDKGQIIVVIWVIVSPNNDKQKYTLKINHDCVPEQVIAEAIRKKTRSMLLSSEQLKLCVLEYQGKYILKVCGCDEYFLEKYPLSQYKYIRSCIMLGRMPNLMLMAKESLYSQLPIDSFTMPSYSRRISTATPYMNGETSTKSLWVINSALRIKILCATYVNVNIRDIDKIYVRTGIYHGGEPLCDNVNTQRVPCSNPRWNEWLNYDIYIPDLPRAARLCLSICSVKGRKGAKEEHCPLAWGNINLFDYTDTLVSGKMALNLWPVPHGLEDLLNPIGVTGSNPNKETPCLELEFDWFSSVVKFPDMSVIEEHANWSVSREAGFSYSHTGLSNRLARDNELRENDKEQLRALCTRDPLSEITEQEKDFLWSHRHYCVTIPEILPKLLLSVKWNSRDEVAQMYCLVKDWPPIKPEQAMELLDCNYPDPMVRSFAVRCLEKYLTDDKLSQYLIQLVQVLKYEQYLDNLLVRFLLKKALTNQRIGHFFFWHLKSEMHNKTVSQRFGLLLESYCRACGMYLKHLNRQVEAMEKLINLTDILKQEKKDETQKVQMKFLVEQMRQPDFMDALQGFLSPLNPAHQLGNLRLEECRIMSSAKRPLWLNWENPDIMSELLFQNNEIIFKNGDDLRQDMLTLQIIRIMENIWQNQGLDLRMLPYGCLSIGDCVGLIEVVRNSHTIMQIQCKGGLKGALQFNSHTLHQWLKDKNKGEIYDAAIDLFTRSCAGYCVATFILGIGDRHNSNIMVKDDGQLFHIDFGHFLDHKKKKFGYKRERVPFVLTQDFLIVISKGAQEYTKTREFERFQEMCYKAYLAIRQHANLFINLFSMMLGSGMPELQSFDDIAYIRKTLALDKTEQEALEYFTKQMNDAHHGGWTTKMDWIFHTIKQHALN", "T7 sequence (P26450 whole entry partner)": "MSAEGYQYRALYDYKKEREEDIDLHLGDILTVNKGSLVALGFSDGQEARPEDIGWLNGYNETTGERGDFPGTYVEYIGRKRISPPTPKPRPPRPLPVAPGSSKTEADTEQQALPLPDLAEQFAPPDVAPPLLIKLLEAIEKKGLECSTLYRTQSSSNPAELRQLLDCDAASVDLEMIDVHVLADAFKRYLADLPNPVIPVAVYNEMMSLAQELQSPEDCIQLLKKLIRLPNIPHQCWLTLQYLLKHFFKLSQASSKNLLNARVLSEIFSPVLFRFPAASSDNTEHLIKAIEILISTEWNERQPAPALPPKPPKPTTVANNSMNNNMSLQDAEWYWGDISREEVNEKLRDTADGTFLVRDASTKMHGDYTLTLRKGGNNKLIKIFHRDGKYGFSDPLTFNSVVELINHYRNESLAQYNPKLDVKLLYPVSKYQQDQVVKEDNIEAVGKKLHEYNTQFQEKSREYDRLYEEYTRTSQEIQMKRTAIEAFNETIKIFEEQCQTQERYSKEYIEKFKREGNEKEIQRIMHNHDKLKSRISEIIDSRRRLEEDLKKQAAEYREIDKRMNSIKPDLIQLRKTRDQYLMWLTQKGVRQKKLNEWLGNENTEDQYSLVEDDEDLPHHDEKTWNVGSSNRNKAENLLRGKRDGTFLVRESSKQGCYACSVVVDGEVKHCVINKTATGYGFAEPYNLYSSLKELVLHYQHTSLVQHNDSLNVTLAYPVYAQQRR", "how_it_was_run": "as §1"}, "[8]": {"conditions": "read-out: Residual activity (%) Spautin-1 5aa"}, "[9]": {"conditions": "read-out: Residual activity (%) 5as"}, "[10]": {"conditions": "read-out: Residual activity (%) 5at"}, "[11]": {"conditions": "read-out: Residual activity (%) 5ay"}},
  "note": "Read-outs that look alike come from different tables or passages of the source.",
  "data": [
    {"smiles": "Fc1ccc(CNc2ncnc3ccc(F)cc23)cc1", "note": "[5aa, 6-Fluoro-N-(4-fluorobenzyl)-4-Quinazolinamine]", "values": [
      {"measurement": "remaining activity at 10 µM", "setting": "[1]; [8]", "value": 84, "unit": "%"},
      {"measurement": "remaining activity at 10 µM", "setting": "[2]; [8]", "value": 87, "unit": "%"},
      {"measurement": "remaining activity at 10 µM", "setting": "[3]; [8]", "value": 98, "unit": "%"},
      {"measurement": "remaining activity at 10 µM", "setting": "[4]; [8]", "value": 95, "unit": "%"},
      {"measurement": "remaining activity at 10 µM", "setting": "[5]; [8]", "value": 72, "unit": "%"},
      {"measurement": "remaining activity at 10 µM", "setting": "[6]; [8]", "value": 91, "unit": "%"},
      {"measurement": "remaining activity at 10 µM", "setting": "[7]; [8]", "value": 98, "unit": "%"}
    ]},
    {"smiles": "Fc1ccc(CCNc2ncnc3ccc(F)cc23)cc1", "note": "[5as, 6-Fluoro-N-[2-(4-Fluorophenyl)Ethyl]-4-Quinazolinamine]", "values": [
      {"measurement": "remaining activity at 10 µM", "setting": "[1]; [9]", "value": 114, "unit": "%"},
      {"measurement": "remaining activity at 10 µM", "setting": "[2]; [9]", "value": 103, "unit": "%"},
      {"measurement": "remaining activity at 10 µM", "setting": "[3]; [9]", "value": 90, "unit": "%"},
      {"measurement": "remaining activity at 10 µM", "setting": "[4]; [9]", "value": 98, "unit": "%"},
      {"measurement": "remaining activity at 10 µM", "setting": "[5]; [9]", "value": 100, "unit": "%"},
      {"measurement": "remaining activity at 10 µM", "setting": "[6]; [9]", "value": 84, "unit": "%"},
      {"measurement": "remaining activity at 10 µM", "setting": "[7]; [9]", "value": 86, "unit": "%"}
    ]},
    {"smiles": "Fc1ccc2ncnc(NCCc3ccc(Cl)cc3)c2c1", "note": "[5at, N-[2-(4-Chlorophenyl)Ethyl]-6-Fluoro-4-Quinazolinamine]", "values": [
      {"measurement": "remaining activity at 10 µM", "setting": "[1]; [10]", "value": 98, "unit": "%"},
      {"measurement": "remaining activity at 10 µM", "setting": "[2]; [10]", "value": 67, "unit": "%"},
      {"measurement": "remaining activity at 10 µM", "setting": "[3]; [10]", "value": 86, "unit": "%"},
      {"measurement": "remaining activity at 10 µM", "setting": "[4]; [10]", "value": 88, "unit": "%"},
      {"measurement": "remaining activity at 10 µM", "setting": "[5]; [10]", "value": 91, "unit": "%"},
      {"measurement": "remaining activity at 10 µM", "setting": "[6]; [10]", "value": 73, "unit": "%"},
      {"measurement": "remaining activity at 10 µM", "setting": "[7]; [10]", "value": 87, "unit": "%"}
    ]},
    {"smiles": "COc1ccc2ncnc(Nc3cccc(F)c3)c2c1", "note": "[5ay, N-(3-Fluorophenyl)-6-Methoxy-4-Quinazolinamine]", "values": [
      {"measurement": "remaining activity at 10 µM", "setting": "[1]; [11]", "value": 89, "unit": "%"},
      {"measurement": "remaining activity at 10 µM", "setting": "[2]; [11]", "value": 67, "unit": "%"},
      {"measurement": "remaining activity at 10 µM", "setting": "[3]; [11]", "value": 74, "unit": "%"},
      {"measurement": "remaining activity at 10 µM", "setting": "[4]; [11]", "value": 99, "unit": "%"},
      {"measurement": "remaining activity at 10 µM", "setting": "[5]; [11]", "value": 86, "unit": "%"},
      {"measurement": "remaining activity at 10 µM", "setting": "[6]; [11]", "value": 93, "unit": "%"},
      {"measurement": "remaining activity at 10 µM", "setting": "[7]; [11]", "value": 101, "unit": "%"}
    ]}
  ]
}
